Reference: the NIST ThermoML archive (doi:10.1016/j.jct.2013.12.012)
Where “and” joins values, the source holds several entries; their conditions need not be identical. Equal entries are not always repeated.

Experiments:
[1] = for vapor or sublimation pressure: Closed cell (Static) method; for Normal melting temperature / Triple point temperature: DTA
[2] = Molar enthalpy of transition or fusion; settings: DSC
[3] = molar heat capacity at constant pressure

C=C1C2CCC(C2)C1(C)C (stereo not drawn) [2,2-dimethyl-3-methylenebicyclo[2.2.1]heptane]
[1], Crystal
Settings	vapor or sublimation pressure
238.15 K	0.003435 kPa and 0.003436 kPa
243.15 K	0.005761 kPa and 0.005765 kPa and 0.005768 kPa
248.15 K	0.00946 kPa and 0.009464 kPa and 0.009473 kPa
253.15 K	0.01527 kPa
258.15 K	0.0241 kPa and 0.02413 kPa
263.15 K	0.03746 kPa and 0.03747 kPa
268.15 K	0.05698 kPa and 0.05699 kPa
273.15 K	0.08514 kPa and 0.08515 kPa and 0.08516 kPa
273.65 K	0.0885 kPa and 0.08853 kPa and 0.08854 kPa
278.15 K	0.1252 kPa
283.15 K	0.1811 kPa
288.15 K	0.2585 kPa and 0.2586 kPa and 0.2587 kPa
293.15 K	0.3628 kPa and 0.363 kPa and 0.3631 kPa
298.15 K	0.5037 kPa and 0.5038 kPa and 0.5039 kPa
303.15 K	0.6891 kPa and 0.6896 kPa and 0.69 kPa
308.15 K	0.934 kPa and 0.9343 kPa and 0.9345 kPa

Crystal
Settings	Molar enthalpy of transition or fusion [kcal/mol]	Normal melting temperature [°C]
[1]	–	44.5
[2]	0.645	–

[3], 101.33 kPa, Large sample (1 g) DSC
Settings	molar heat capacity at constant pressure [J/K/mol]
258.1 K, Crystal	211.1
263.2 K, Crystal	213.9
268.3 K, Crystal	216.8
273.4 K, Crystal	219.8
278.5 K, Crystal	222.7
283.6 K, Crystal	225.7
288.7 K, Crystal	228.8
293.8 K, Crystal	231.9
298.9 K, Crystal	235.1
324.5 K, Liquid	251.5
329.6 K, Liquid	254.5
334.7 K, Liquid	257.4
339.8 K, Liquid	259.8
344.9 K, Liquid	262.3
350 K, Liquid	265.6
355.1 K, Liquid	269.3

CC1(C)[C@H]2CC[C@]1(C)C(=O)C2 [(1S)-1,7,7-trimethylbicyclo[2.2.1]heptan-2-one]
[1], Crystal 2
Settings	vapor or sublimation pressure
273.65 K	0.00359 kPa and 0.003604 kPa and 0.003606 kPa
278.15 K	0.005406 kPa and 0.005414 kPa and 0.00542 kPa
283.15 K	0.008302 kPa and 0.008322 kPa and 0.008324 kPa
288.15 K	0.01261 kPa and 0.01262 kPa and 0.0126 kPa
293.15 K	0.01883 kPa and 0.01885 kPa and 0.01888 kPa
298.15 K	0.02802 kPa and 0.02806 kPa and 0.02812 kPa
303.15 K	0.04122 kPa and 0.04127 kPa
308.15 K	0.05983 kPa and 0.05985 kPa and 0.05989 kPa

Settings	Molar enthalpy of transition or fusion, Crystal 1 [kcal/mol]	Molar enthalpy of transition or fusion, Crystal 2 [kcal/mol]	Molar enthalpy of transition or fusion, Crystal 3 [kcal/mol]	Normal melting temperature, Crystal 1 [°C]	Triple point temperature, Crystal 2 [K]	Triple point temperature, Crystal 3 [K]
[1]	–	–	–	175.4	373.4	243.9
[2]	1.17	0.0478	2.63	–	–	–

[3], 101.33 kPa, Crystal 2, Large sample (1 g) DSC
Settings	molar heat capacity at constant pressure [J/K/mol]
273.4 K	241
278.5 K	242
283.6 K	243
288.7 K	244.9
293.8 K	246.6
298.9 K	248.9
304 K	251
309.1 K	253.2
314.2 K	255.5
319.4 K	256.9
324.5 K	259.7
329.6 K	262.5
334.7 K	264.8
339.8 K	267.2
344.9 K	270.5
350 K	273.6
355.1 K	276.7

CC1(C)[C@H]2CC[C@]1(C)[C@H](O)C2 [(1S-endo)-1,7,7-trimethylbicyclo[2.2.1]heptan-2-ol]
[1], Crystal 2
Settings	vapor or sublimation pressure
273.65 K	0.000211 kPa and 0.000212 kPa
278.15 K	0.00036 kPa and 0.000361 kPa
283.15 K	0.000638 kPa and 0.000639 kPa
288.15 K	0.001105 kPa and 0.001106 kPa and 0.001104 kPa
293.15 K	0.001882 kPa and 0.001883 kPa
298.15 K	0.003159 kPa and 0.003161 kPa and 0.003162 kPa
303.15 K	0.005213 kPa and 0.005214 kPa and 0.005215 kPa
308.15 K	0.008461 kPa and 0.008464 kPa and 0.008465 kPa

Settings	Molar enthalpy of transition or fusion, [2] [kcal/mol]	Normal melting temperature, [1] [°C]	Triple point temperature, [1] [K]
Crystal 1	1.74	207.2	–
Crystal 2	0.765	–	347.9

[3], 101.33 kPa, Crystal 2, Large sample (1 g) DSC
Settings	molar heat capacity at constant pressure [J/K/mol]
273.4 K	237.9
278.5 K	241.9
283.6 K	246.4
288.7 K	250.5
293.8 K	255.4
298.9 K	261.2
304 K	266.7
309.1 K	272.5
314.2 K	279
319.4 K	286.1
324.5 K	293.6
329.6 K	302
334.7 K	311

CC1(C)C(=O)[C@@]2(C)CC[C@@H]1C2 [(+)-fenchone]
[1]
Settings	vapor or sublimation pressure
238.15 K, Crystal 2	0.00014 kPa and 0.000141 kPa and 0.000142 kPa
243.15 K, Crystal 2	0.000277 kPa and 0.000278 kPa
243.15 K, Metastable liquid	0.000763 kPa and 0.000764 kPa
248.15 K, Crystal 2	0.000547 kPa and 0.000548 kPa
248.15 K, Metastable liquid	0.001307 kPa and 0.001308 kPa
253.15 K, Crystal 2	0.001053 kPa and 0.001054 kPa
253.15 K, Metastable liquid	0.002188 kPa and 0.002189 kPa
258.15 K, Crystal 2	0.001988 kPa and 0.001991 kPa and 0.001993 kPa
258.15 K, Metastable liquid	0.003604 kPa and 0.003605 kPa
263.15 K, Crystal 2	0.0037 kPa and 0.003705 kPa
263.15 K, Metastable liquid	0.005827 kPa and 0.005828 kPa and 0.005829 kPa
268.15 K, Crystal 2	0.006751 kPa and 0.006753 kPa
268.15 K, Metastable liquid	0.009242 kPa and 0.009244 kPa and 0.009246 kPa
273.15 K, Crystal 2	0.01206 kPa
273.15 K, Metastable liquid	0.01436 kPa
278.15 K, Crystal 1	0.02111 kPa and 0.02112 kPa
278.15 K, Metastable liquid	0.02193 kPa and 0.02194 kPa
283.15 K, Liquid	0.03289 kPa and 0.0329 kPa and 0.03291 kPa
288.15 K, Liquid	0.04842 kPa and 0.04845 kPa
293.15 K, Liquid	0.07036 kPa and 0.07037 kPa
298.15 K, Liquid	0.1007 kPa and 0.1008 kPa
303.15 K, Liquid	0.1421 kPa
308.15 K, Liquid	0.1977 kPa and 0.1978 kPa

Settings	Molar enthalpy of transition or fusion, [2] [kcal/mol]	Normal melting temperature, [1] [°C]	Triple point temperature, [1] [K]
Crystal 1	–	5.5	–
Crystal 2	4.16	–	278

[3], 101.33 kPa
Settings	molar heat capacity at constant pressure [J/K/mol]
273.4 K, Metastable liquid, Large sample (1 g) DSC	259.6
278.5 K, Metastable liquid, Large sample (1 g) DSC	260.7
283.6 K, Large sample (1 g) DSC, Liquid	263.6
288.7 K, Large sample (1 g) DSC, Liquid	264.6
293.8 K, Large sample (1 g) DSC, Liquid	266.6
298.9 K, Large sample (1 g) DSC, Liquid	269.8
304 K, Large sample (1 g) DSC, Liquid	271.8
309.1 K, Large sample (1 g) DSC, Liquid	274.4
314.2 K, Large sample (1 g) DSC, Liquid	277
319.4 K, Large sample (1 g) DSC, Liquid	278.9
324.5 K, Large sample (1 g) DSC, Liquid	281.7
329.6 K, Large sample (1 g) DSC, Liquid	284.7
334.7 K, Large sample (1 g) DSC, Liquid	287.3
339.8 K, Large sample (1 g) DSC, Liquid	289.9
344.9 K, Large sample (1 g) DSC, Liquid	292.7
350 K, Large sample (1 g) DSC, Liquid	295.6
355.1 K, Large sample (1 g) DSC, Liquid	298.8
